# Experimental data taken from PubChem BioAssay AID608 (Sanford-Burnham Center for Chemical Genomics, 2007).
# Calls of active or inactive are those of the source. The rule behind the calls is not given here.
# Molecular target: Peptidyl-prolyl cis-trans isomerase FKBP1A (Homo sapiens) (UniProt P62942)
# Assay: FKBP12 binders, biophysical, NMR detection (AID 608)
# Conditions: NMR binding, purified FKBP12
# Peptidyl-prolyl cis-trans isomerase FKBP1A (Homo sapiens), sequence (P62942 whole entry, looked up): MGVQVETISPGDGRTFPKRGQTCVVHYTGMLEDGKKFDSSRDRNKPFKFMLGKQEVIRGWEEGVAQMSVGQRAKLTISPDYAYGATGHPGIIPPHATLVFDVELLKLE
row,Structure (SMILES),Kd
1,O=C1CNC(=O)/C1=C/c1ccc(O)cc1,> 4 mM (inactive)
2,NC(=O)CSc1ccccn1,> 4 mM (inactive)
3,Cc1ccc(-c2nn3c(C)nnc3s2)cc1N,> 4 mM (inactive)
4,Cn1cnc2c1c(=O)[nH]c(=O)n2C,> 4 mM (inactive)
5,COC(=O)c1cccc2cc[nH]c12,> 4 mM (inactive)
6,O=c1c2ccccc2nc2n1CCCCN2,> 4 mM (inactive)
7,CNC(=O)c1c(O)c2ccccc2[nH]c1=O,> 4 mM (inactive)
8,CC1(C)Cc2nc3n[nH]c(N)c3cc2CO1,> 4 mM (inactive)
9,O=C(O)c1cc2ccccc2cn1,> 4 mM (inactive)
10,NC(C(=O)O)C(O)c1ccccc1 (configuration not stated),> 4 mM (inactive)
11,CC1/C(=N/O)C[C@@H]2C[C@H]1C2(C)C (some centres not stated),> 4 mM (inactive)
12,Cc1cc(C)n(-c2nc(C)nc(N)n2)n1,> 4 mM (inactive)
13,O=C1CSC(=S)N1Cc1cccnc1,> 4 mM (inactive)
14,COC1=CC23CCCN2CCc2cc4c(cc2C3C1O)OCO4 (configuration not stated),> 4 mM (inactive)
15,CC(=O)Oc1ccccc1N1C(=O)C=CC1=O,> 4 mM (inactive)
16,O=C1CSC2=NCCCN12,> 4 mM (inactive)
17,Cc1onc(-c2c(Cl)cccc2Cl)c1C(N)=O,> 4 mM (inactive)
18,O=C(Nc1ccccn1)C(=O)N1CCCC1,> 4 mM (inactive)
19,COc1ccc(Cl)cc1NC(=O)c1ccco1,> 4 mM (inactive)
20,c1ccc2c(c1)[nH]c1cnccc12,> 4 mM (inactive)
21,CCOC(=O)N1CCN(c2ncnc3c2cnn3C)CC1,> 4 mM (inactive)
22,Cc1nnc(N2CCc3ccccc3C2)[nH]c1=O,> 4 mM (inactive)

row,Structure (SMILES),Kd
1,Cc1ccc(CN2C3=NC(=O)CN3c3ccccc32)cc1,> 4 mM (inactive)
2,CC(=O)OC1CC[C@@]2(C)C(CCC3C2CC[C@]2(C)C(C4=CC(=O)OC4)C(OC(C)=O)CC32O)C1 (some centres not stated),> 4 mM (inactive)
3,COc1c(-c2coc3cc4c(cc3c2=O)CC(OC(C)=O)C(C)(C)O4)ccc2c1C=CC(C)(C)O2 (configuration not stated),> 4 mM (inactive)
4,CCn1nnc(NC(=O)c2cc3ccccc3o2)n1,> 4 mM (inactive)
5,C=C1C2CC[C@@]3(C)[C@H](c4ccoc4)OC(=O)C[C@]13O[C@H]1CC(=O)C(C)(C)[C@H](C(O)C(=O)OC)[C@@]21C (some centres not stated),> 4 mM (inactive)
6,S=C(Nc1ccc2nccnc2c1)N1CCOCC1,> 4 mM (inactive)
7,C=CCn1c(-c2ccc(O)cc2)n[nH]c1=S,> 4 mM (inactive)
8,CC(=O)CC(=O)N1C(O)CC[N+]1(C)C (configuration not stated),> 4 mM (inactive)
9,Cc1cccc(NC(=O)CN2C(=O)CNC2=O)c1,> 4 mM (inactive)
10,CN1CCC(O)N1C(=O)c1ccccc1O (configuration not stated),> 4 mM (inactive)
11,Fc1ccc(NC2=NCCS2)cc1Cl,> 4 mM (inactive)
12,CC1=NN(c2ccc(N)cc2)C(=O)C1,> 4 mM (inactive)
13,NC(=O)C1CCN(C(=O)CN2CCc3ccccc32)CC1,> 4 mM (inactive)
14,OC1CC2CCC1C2 (configuration not stated),> 4 mM (inactive)
15,CC(=O)Nc1ccc(S(=O)(=O)NC2=NCCS2)cc1,> 4 mM (inactive)
16,COc1cc(C(=S)N2CCCC2)cc(Cl)c1O,> 4 mM (inactive)
17,CC1(C)CC(NC(=O)/C=C/C(=O)O)CC(C)(C)N1,> 4 mM (inactive)
18,CNC(=O)Nc1ccc(C(=O)NC)cc1,> 4 mM (inactive)
19,O=c1[nH]nnc2sc3c(c12)CCCC3,> 4 mM (inactive)
20,Cc1noc(C)c1CSc1nc2ccccc2[nH]1,0.157 mM
21,Cc1ccc2c(C)c(C(=O)Nc3nnc(C)s3)oc2c1,> 4 mM (inactive)
22,O=C(O)c1ccccc1C(=O)NCC1CCCO1 (configuration not stated),> 4 mM (inactive)

row,Structure (SMILES),Kd
1,O=C1C=CC2=C3c4cc(O)c(O)cc4CC3(O)COC2=C1O (configuration not stated),> 4 mM (inactive)
2,Cc1cc(C)n(S(=O)(=O)c2ccc(C(C)(C)C)cc2)n1,> 4 mM (inactive)
3,O=c1[nH]c(N2CCOCC2)nc2ccccc12,> 4 mM (inactive)
4,NC(=O)CCn1c(=O)oc2ccccc21,> 4 mM (inactive)
5,Cc1ccc(C(O)c2nccn2C)o1 (configuration not stated),> 4 mM (inactive)
6,COC(=O)c1ccc2ncccc2c1,> 4 mM (inactive)
7,O=C(Nc1ccc2c(c1)OCO2)c1c(F)cccc1F,> 4 mM (inactive)
8,COc1cccc(NC(=O)c2nc3ncccn3n2)c1,> 4 mM (inactive)
9,CCc1cc2c(SCC(=O)O)ncnc2s1,> 4 mM (inactive)
10,Cc1cc(=O)[nH]c(NCc2cccnc2)n1,> 4 mM (inactive)
11,O=C(O)C1=C[C@@H](O)[C@@H](O)[C@H](O)C1,> 4 mM (inactive)
12,Cc1nnc(SCC(=O)N2CCCCC2)s1,> 4 mM (inactive)
13,NC(=O)c1ccccc1NC(=O)C1CC1,> 4 mM (inactive)
14,O=C(CC1NCCNC1=O)Nc1ccccc1 (configuration not stated),> 4 mM (inactive)
15,O=C(O)CNc1ncnc2nc[nH]c12,> 4 mM (inactive)
16,CC(=O)Nc1ccc(S(=O)(=O)NC(N)=O)cc1,> 4 mM (inactive)
17,C=C1C2CC[C@H]3[C@]4(C)C[C@H](OC5OC(CO)C(OS(=O)(=O)O)C(OS(=O)(=O)O)C5OC(=O)CC(C)C)C[C@@H](C(=O)O)[C@H]4CC[C@]3(C2)[C@H]1O (some centres not stated),> 4 mM (inactive)
18,NC1CS(=O)(=O)CC1O (configuration not stated),> 4 mM (inactive)
19,CC(=O)O[C@H]1C[C@@H](OC(C)=O)C(C)(C)C2C[C@@H](OC(C)=O)[C@]3(C)C(CC[C@@]4(C)[C@H](c5ccoc5)C(=O)[C@H]5O[C@]543)[C@]21C (some centres not stated),> 4 mM (inactive)
20,Clc1ccccc1OCc1nc(-c2ccncc2)no1,> 4 mM (inactive)
21,O=C(c1cnsn1)N1CCN(c2ccccc2)CC1,> 4 mM (inactive)
22,COc1ccc(C2(C)CC(=O)NC2=O)cc1 (configuration not stated),> 4 mM (inactive)

row,Structure (SMILES),Kd
1,COc1cccc(/C=N/N=C2/NC(=O)CS2)c1,> 4 mM (inactive)
2,CC(=O)N(C)Cc1nc2ccccc2n1C,> 4 mM (inactive)
3,Nc1nc2n(c1C(=O)c1ccccc1)CCC2,> 4 mM (inactive)
4,O=C(O)c1cccc2c1OCCO2,> 4 mM (inactive)
5,O=C(c1ccccc1)c1ccccc1C(=O)N1CCOCC1,> 4 mM (inactive)
6,OCC1CCN(Cc2ccccc2)CC1,> 4 mM (inactive)
7,Nn1cnn2c(SCc3ccccc3)nnc12,> 4 mM (inactive)
8,O=C(O)Cc1nc(-c2ccncc2)n[nH]1,> 4 mM (inactive)
9,CCC(=O)n1nc(-c2ccco2)nc1N,> 4 mM (inactive)
10,CCc1c(C)n([O-])c2c([n+]1=O)CCC2,> 4 mM (inactive)
11,COc1cc(OC)c2c(=O)c(OC)c(-c3ccc(OC)c(OC)c3)oc2c1,> 4 mM (inactive)
12,Cc1ncc(C[n+]2csc3ccccc32)c(N)n1,> 4 mM (inactive)
13,NC(=O)c1cccnc1Oc1ccccc1,> 4 mM (inactive)
14,CNC(=S)N1CCN(C(=O)c2ccco2)CC1,> 4 mM (inactive)
15,COc1ccc(CCC(=O)N2CCOCC2)cc1,0.204 mM
16,NCCCCN=C(N)N,> 4 mM (inactive)
17,O=C1C=C(Nc2ccc(O)cc2)c2ccccc2C1=O,> 4 mM (inactive)
18,C[N+](C)(C)CC(=O)[O-],> 4 mM (inactive)
19,Nc1ccc2c(c1)S(=O)(=O)C=C2,> 4 mM (inactive)
20,COc1cc(C)c(Cl)cc1S(=O)(=O)N(C)C,> 4 mM (inactive)
21,Oc1cc(O)c2c(c1)O[C@H](c1ccc(O)c(O)c1)[C@H](O)C2,> 4 mM (inactive)
